Test results: patent US20250042916A1 (ACONCAGUA BIO, INC., priority 2023, published 2025)
pEC50: −log10 of the molar value.

How the values were obtained:
Type in all cases: cell-based
[1] = molecular target: T1, human calcitonin receptor (CTR) in COS-7 cells (Homo sapiens, UniProt P30988); assay: Calcitonin Receptor (CTR) cAMP Assay; conditions: COS7-human CTR Clone #2 cells; read-out: Calcitonin Receptor cAMP Stimulation Activity: EC50
T1 construct: expressed in transfected cells; host or cells: COS-7 (COS7-human CTR Clone #2)
T1 sequence (P30988 25-474): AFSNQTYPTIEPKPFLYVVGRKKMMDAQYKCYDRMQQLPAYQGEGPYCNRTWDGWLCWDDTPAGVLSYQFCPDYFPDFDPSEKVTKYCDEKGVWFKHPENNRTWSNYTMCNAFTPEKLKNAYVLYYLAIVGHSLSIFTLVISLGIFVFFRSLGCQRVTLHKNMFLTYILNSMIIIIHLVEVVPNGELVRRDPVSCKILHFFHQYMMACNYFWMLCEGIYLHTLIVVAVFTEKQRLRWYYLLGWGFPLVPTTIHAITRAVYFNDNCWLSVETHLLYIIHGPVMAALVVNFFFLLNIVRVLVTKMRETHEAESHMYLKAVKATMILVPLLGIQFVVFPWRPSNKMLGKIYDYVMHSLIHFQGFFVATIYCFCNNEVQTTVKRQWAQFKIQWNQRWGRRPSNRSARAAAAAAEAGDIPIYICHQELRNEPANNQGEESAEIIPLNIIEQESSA
Excerpt: Calcitonin Receptor (CTR) cAMP Assay
The calcitonin receptor (CTR) belongs to the subfamily of GPCRs known as the secretin or ‘B’ family of GPCRs. Like other class B1 GPCRs, the CT receptor family is canonically coupled to Gs-mediated cAMP production, and measurement of cAMP accumulation has been the primary assay used to determine peptide selectivity and potency.
(§1) To optimize functional activity directed toward Gas coupling, COS-7 cells were stably transfected with human calcitonin receptor (CTR) to create COS7-human CTR Clone #2 stable cell line. 100× concentration of compound working solutions were prepared with 4-fold serial dilution in 384-well Echo LDV plate (Labcyte, Cat #LP-0200-BC). 200 nL/well 100× concentration of compound working solutions were moved to 384-well white microplate (Perkin Elmer, Cat #6007680) using Labcyte ECHO550. 1×10^5 cells/mL COS7-human CTR Clone #2 cell suspensions prepared with assay buffer [HBSS containing 20 mM HEPES (Gibco, Cat #15630-080), 0.5 mM IBMX (Sigma, Cat #15879) and 0.1% Casein (Sigma, Cat #C4765)], 20 μL cell suspensions were added to each well of previous generated assay plate which already contains 200 nL compound at 100× concentration using ThermoFisher Multidrop Combi (2000 cells/well). Seal the plate and incubate at 37° C. with 5% CO2 for 30 min.
(§2) After incubation, the cAMP assay signal was generated using cAMP dynamic 2 kit (Revvity, Cat #62AM4PEC). 10 μL cAMP-d2 working solution was added to each well, followed by 10 L Anti-cAMP antibody-cryptate working solution which was added to each well using CERTUS FLEX LIQUID DISPENSER. The samples were then incubated at room temperature for 1 hour protected from light. the fluorescence was read at 665 and 615 nm with Reader PerkinElmer EnVision 2105.

[2] = molecular target: T2, human calcitonin receptor (CTR) and RAMP3 (AMY3) in COS-7 cells (Homo sapiens, UniProt O60896+P30988); assay: Amylin Receptor cAMP Assay I; conditions: values marked *: Amylin Receptor cAMP Assay I; COS-7/AMY3 cells; read-out: Amylin Receptor cAMP Stimulation Activity: EC50
Procedure, shortened: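 COS-7 cells stably co-expressing human CTR and RAMP3 (AMY3) were stimulated with serially diluted compounds (4-fold) in DPBS with 0.5 mM IBMX and 0.1% BSA for 30 min at 37 °C, 1000 cells/well. cAMP accumulation was measured by HTRF (cAMP-d2/anti-cAMP cryptate, 1 h RT) read at 665/615 nm.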

[3] = molecular target: T2, human calcitonin receptor (CTR) and RAMP3 (AMY3) in COS-7 cells; assay: Amylin Receptor cAMP Assay II; conditions: value marked **: Amylin Receptor cAMP Assay II; COS-7/AMY3 cells; read-out: Amylin Receptor cAMP Stimulation Activity: EC50
Excerpt: Amylin Receptor cAMP Assay II
AMYRs are heterodimers of the class B calcitonin (CT) G-protein-coupled receptor (CTR) and receptor activity-modifying proteins (RAMPs). All three RAMPs can interact with the CTR and form AMY1, AMY2, AMY3 with RAMP1, RAMP2 and RAMP3, respectively. Like other class B1 GPCRs, the CT receptor family is canonically coupled to Gs-mediated cAMP production, and measurement of cAMP accumulation has been the primary assay used to determine peptide selectivity and potency.
To optimize functional activity directed toward Gas coupling, COS-7 cells were stably transfected with human calcitonin receptor (CTR) and RAMP3, simultaneously. 100× concentration of compound working solutions were prepared with 4-fold serial dilution in 384-well Echo LDV plate (Labcyte, Cat #LP-0200-BC). 200 nL/well 100× concentration of compound working solutions were moved to 384-well white microplate (Perkin Elmer, Cat #6007680) using Labcyte ECHO550. […]
After incubation, the cAMP assay signal was generated using cAMP dynamic 2 kit (Revvity, Cat #62AM4PEC). […] The samples were then incubated at room temperature for 1 hour protected from light. the fluorescence was read at 665 and 615 nm with Reader PerkinElmer EnVision 2105.

[4] = molecular target: Amylin Receptor (Homo sapiens, UniProt O60896+P30988); assay: Amylin Receptor cAMP stimulation, assay version (I or II) not marked; conditions: values without footnote mark; assay I or II not stated
Procedure: To optimize functional activity directed toward Gas coupling, COS-7 cells were stably transfected with human calcitonin receptor (CTR) and RAMP3, simultaneously. 100× concentration of compound working solutions were prepared (Agilent Technologies Bravo) with 4-fold serial dilution in 384-well Echo LDV plate (Labcyte, Cat #LP-0200). 100 nL/well 100× concentration of compound working solutions were moved to 384-well white low volume plate (Greiner, Cat #784075) using Labcyte ECHO550. 1×10^5 cells/mL COS-7/CTR or COS-7/AMY3 (HD Biosciences) cell suspensions prepared with assay buffer [DPBS containing 0.5 mM IBMX (Sigma, Cat #15879) and 0.1% BSA (GENVIEW, Cat #FA016-100 g)], 10 μL cell suspensions were added to each well of previous generated assay plate which already contains 100 nL compound at 100× concentration using ThermoFisher Multidrop Combi (1000 cells/well). Seal the plate and incubate at 37° C. with 5% CO2 for 30 min.
as §2, with “Hi-range Kit (Cisbio). 5” for “dynamic 2 kit (Revvity, Cat #62AM4PEC). 10”, “5 μL” for “10 L”, “ThermoFisher Multidrop Combi.” for “CERTUS FLEX LIQUID DISPENSER.”, “EnVision.” for “EnVision 2105.”
as §1, with “and RAMP3, simultaneously.” for “to create COS7-human CTR Clone #2 stable cell line.”, “COS-7/AMY3” for “COS7-human CTR Clone #2”
as §2, with “10 μL” for “10 L”

Chain of Amylin Receptor (O60896 24-148, one chain of several): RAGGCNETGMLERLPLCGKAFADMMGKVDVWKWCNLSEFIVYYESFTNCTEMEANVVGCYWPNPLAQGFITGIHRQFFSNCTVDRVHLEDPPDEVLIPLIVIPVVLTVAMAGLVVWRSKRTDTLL
T2 sequence (O60896 24-148, one chain of several): as above

SMILES | pEC50 [1] | pEC50 [2] | pEC50 [3] | pEC50 [4]
Cc1nnc(-c2c(CCc3ccc(F)cc3)nc(CC(C)C)c(C(N)=O)c2-c2ccc3c(c2)CCC3OCc2ccc(F)c(F)c2)o1 (centres unmarked) [Compound 142, 4-{1-[(3,4-difluorophenyl)methoxy]-5-indanyl}-6-[2-(p-fluorophenyl)ethyl]-2-isobutyl-5-(5-methyl-1,3,4-oxadiazol-2-yl)nicotinamide] | 8.06 | 7.03 |  | 
Cc1nnc(-c2c(CCc3ccc(F)cc3)nc(CC(C)C)c(C(N)=O)c2-c2ccc3c(ccn3CCc3ccc(F)c(F)c3)c2)o1 [Compound 144, 4-(1-(3,4-difluorophenethyl)-1H-indol-5-yl)-6-(4-fluorophenethyl)-2-isobutyl-5-(5-methyl-1,3,4-oxadiazol-2-yl)nicotinamide] | 8.16 | 7.29 |  | 
Cc1nnc(-c2c(CCc3ccc(F)cc3)nc(CC(C)C)c(C(N)=O)c2-c2ccc3c(c2)CCCN3CCc2ccc(F)c(F)c2)o1 [Compound 174, 4-(1-(3,4-difluorophenethyl)-1,2,3,4-tetrahydroquinolin-6-yl)-6-(4-fluorophenethyl)-2-isobutyl-5-(5-methyl-1,3,4-oxadiazol-2-yl)nicotinamide] | 8.24 | 6.97 |  | 
Cc1nnc(-c2c(C34CC(C(F)F)(C3)C4)nc(CC(C)C)c(C(N)=O)c2-c2ccc(C(=O)NCc3ccc(F)c(F)c3)s2)o1 [Compound 190, 4-(5-((3,4-difluorobenzyl)carbamoyl)thiophen-2-yl)-6-(3-(difluoromethyl)bicyclo[1.1.1]pentan-1-yl)-2-isobutyl-5-(5-methyl-1,3,4-oxadiazol-2-yl)nicotinamide] | 6.13 | 5.39 |  | 
Cc1nnc(-c2c(CC34CC(C(F)F)(C3)C4)nc(CC(C)C)c(C(N)=O)c2-c2ccc(C(=O)NCc3ccc(F)c(F)c3)s2)o1 [Compound 203, 4-(5-((3,4-difluorobenzyl)carbamoyl)thiophen-2-yl)-6-((3-(difluoromethyl)bicyclo[1.1.1]pentan-1-yl)methyl)-2-isobutyl-5-(5-methyl-1,3,4-oxadiazol-2-yl)nicotinamide] | 7.19 | 6.03 |  | 
Cc1nnc(-c2c(CCC3CCN(C(=O)OCc4ccccc4)CC3)nc(CC(C)C)c(C(N)=O)c2-c2ccc(C(=O)NCc3ccc(F)c(F)c3)s2)o1 [Compound 205, Benzyl 4-[2-[5-carbamoyl-4-[5-[(3,4-difluorophenyl)methylcarbamoyl]-2-thienyl]-6-isobutyl-3-(5-methyl-1,3,4-oxadiazol-2-yl)-2-pyridyl]ethyl]piperidine-1-carboxylate] | 8.22 |  | 7.18 | 
Cc1cnc(-c2c(CCC3CCOCC3)nc(CC(C)C)c(C(N)=O)c2-c2cc3ccnc(N[C@@H]4CCc5ncccc54)c3s2)o1 [Compound 207, 4-{7-[(R)-4-aza-1-indanylamino]-1-thia-6-aza-2-indenyl}-2-isobutyl-5-(5-methyl-1,3-oxazol-2-yl)-6-[2-(tetrahydro-2H-pyran-4-yl)ethyl]nicotinamide] |  |  |  | 7.19
Cc1nnc(-c2c(COc3ccc(F)cc3)nc(CC(C)C)c(C(N)=O)c2-c2ccc(C(=O)N[C@@H]3CCc4ccccc43)s2)o1 [Compound 210, N—[(R)-1-indanyl]-5-{3-carbamoyl-6-[(p-fluorophenoxy)methyl]-2-isobutyl-5-(5-methyl-1,3,4-oxadiazol-2-yl)-4-pyridyl}-2-thenamide] |  |  |  | 6.26

The next lines start with the values.

pEC50 [1] | pEC50 [2] | pEC50 [3] | pEC50 [4] | SMILES
8.09 | 7.44 |  |  | CCc1nc(CC(C)C)c(C(N)=O)c(-c2cc3ccnc(N[C@@H]4CCc5cc(F)ccc54)c3s2)c1-c1nnc(C)o1 [Compound 188, (R)-6-ethyl-4-(7-((5-fluoro-2,3-dihydro-1H-inden-1-yl)amino)thieno[2,3-c]pyridin-2-yl)-2-isobutyl-5-(5-methyl-1,3,4-oxadiazol-2-yl)nicotinamide]
 |  |  | 7.38 | Cc1nnc(-c2c(CCc3ccc(F)cc3)nc(CC(C)C)c(C(N)=O)c2-c2cc3ccnc(NCc4cncc(F)c4)c3s2)o1 [Compound 206, 6-[2-(p-fluorophenyl)ethyl]-4-(7-{[(5-fluoro-3-pyridyl)methyl]amino}-1-thia-6-aza-2-indenyl)-2-isobutyl-5-(5-methyl-1,3,4-oxadiazol-2-yl)nicotinamide]
9.24 |  |  | 7.72 | COc1cccc2c1CC[C@H]2Nc1nccc2cc(-c3c(C(N)=O)c(CC(C)C)nc(CCC4CCOCC4)c3-c3nnc(C)o3)sc12 [Compound 208, 4-{7-[(R)-4-methoxy-1-indanylamino]-1-thia-6-aza-2-indenyl}-2-isobutyl-5-(5-methyl-1,3,4-oxadiazol-2-yl)-6-[2-(tetrahydro-2H-pyran-4-yl)ethyl]nicotinamide]
 |  |  | 7.01 | CCc1nc(CC(C)C)c(C(N)=O)c(-c2cc3ccnc(N[C@@H]4CCc5ccc(F)cc54)c3s2)c1-c1nnc(C)o1 [Compound 209, 4-{7-[(R)-6-fluoro-1-indanylamino]-1-thia-6-aza-2-indenyl}-6-ethyl-2-isobutyl-5-(5-methyl-1,3,4-oxadiazol-2-yl)nicotinamide]
